Laboratory results taken from the supplement of paper PMC10307832.

Legend:
Test in all cases: relative viability (nuclei count vs DMSO), 5 days (fraction); higher = more cells survive
[1] = tested on: COR-L23
Summary of the method: (§1)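 Five library-drug doses in √10 steps were combined with a fixed anchor-drug dose, or a single drug was given alone, by pin tool to lung cancer cell lines in 1536-well plates the day after seeding. Nuclei were stained and counted after 5 days. Relative viability is the nuclei count in treated wells over that in vehicle wells, taken as the median of duplicate plates.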

[2] = tested on: NCI-H1437
Summary of the method: as §1

[3] = tested on: ChaGo-K-1
Summary of the method: as §1

[4] = tested on: ABC-1
Summary of the method: as §1

[5] = tested on: SK-MES-1
Summary of the method: as §1

[6] = tested on: SW 1573
Summary of the method: as §1

[7] = tested on: NCI-H1648
Summary of the method: as §1

[8] = tested on: NCI-H1651
Summary of the method: as §1

Cc1sc2c(c1C)C(c1ccc(Cl)cc1)=N[C@@H](CC(=O)OC(C)(C)C)c1nnc(C)n1-2 [JQ1] + CC(=O)c1c(C)c2cnc(Nc3ccc(N4CCNCC4)cn3)nc2n(C2CCCC2)c1=O [Palbociclib] (partner 0.5 µM)
relative viability ([1]; first compound 0.04 µM): 0.336 | relative viability ([1]; first compound 0.1265 µM): 0.193 | relative viability ([1]; first compound 0.4 µM): 0.25 | relative viability ([1]; first compound 1.265 µM): 0.165 | relative viability ([1]; first compound 4 µM): 0.162 | relative viability ([2]; first compound 0.04 µM): 0.266 | relative viability ([2]; first compound 0.1265 µM): 0.251 | relative viability ([2]; first compound 0.4 µM): 0.218 | relative viability ([2]; first compound 1.265 µM): 0.296 | relative viability ([2]; first compound 4 µM): 0.217 | relative viability ([3]; first compound 0.04 µM): 0.942 | relative viability ([3]; first compound 0.1265 µM): 0.909 | relative viability ([3]; first compound 0.4 µM): 0.952 | relative viability ([3]; first compound 1.265 µM): 0.674 | relative viability ([3]; first compound 4 µM): 0.525 | relative viability ([4]; first compound 0.04 µM): 0.701 | relative viability ([4]; first compound 0.1265 µM): 0.479 | relative viability ([4]; first compound 0.4 µM): 0.44 | relative viability ([4]; first compound 1.265 µM): 0.451 | relative viability ([4]; first compound 4 µM): 0.334 | relative viability ([5]; first compound 0.04 µM): 0.295 | relative viability ([5]; first compound 0.1265 µM): 0.264 | relative viability ([5]; first compound 0.4 µM): 0.234 | relative viability ([5]; first compound 1.265 µM): 0.213 | relative viability ([5]; first compound 4 µM): 0.23 | relative viability ([6]; first compound 0.04 µM): 0.372 | relative viability ([6]; first compound 0.1265 µM): 0.274 | relative viability ([6]; first compound 0.4 µM): 0.202 | relative viability ([6]; first compound 1.265 µM): 0.129 | relative viability ([6]; first compound 4 µM): 0.118 | relative viability ([7]; first compound 0.04 µM): 0.259 | relative viability ([7]; first compound 0.1265 µM): 0.303 | relative viability ([7]; first compound 0.4 µM): 0.332 | relative viability ([7]; first compound 1.265 µM): 0.358 | relative viability ([7]; first compound 4 µM): 0.309 | relative viability ([8]; first compound 0.04 µM): 0.494 | relative viability ([8]; first compound 0.1265 µM): 0.416 | relative viability ([8]; first compound 0.4 µM): 0.403 | relative viability ([8]; first compound 1.265 µM): 0.299 | relative viability ([8]; first compound 4 µM): 0.282

Nc1ccn([C@@H]2O[C@H](CO)[C@@H](O)[C@@H]2O)c(=O)n1 [Cytarabine] + CC(=O)c1c(C)c2cnc(Nc3ccc(N4CCNCC4)cn3)nc2n(C2CCCC2)c1=O [Palbociclib] (partner 0.5 µM)
relative viability ([1]; first compound 0.005 µM): 0.203 | relative viability ([1]; first compound 0.01581 µM): 0.228 | relative viability ([1]; first compound 0.05 µM): 0.176 | relative viability ([1]; first compound 0.1581 µM): 0.115 | relative viability ([1]; first compound 0.5 µM): 0.122 | relative viability ([2]; first compound 0.005 µM): 0.284 | relative viability ([2]; first compound 0.01581 µM): 0.28 | relative viability ([2]; first compound 0.05 µM): 0.237 | relative viability ([2]; first compound 0.1581 µM): 0.192 | relative viability ([2]; first compound 0.5 µM): 0.196 | relative viability ([3]; first compound 0.005 µM): 0.71 | relative viability ([3]; first compound 0.01581 µM): 0.598 | relative viability ([3]; first compound 0.05 µM): 0.461 | relative viability ([3]; first compound 0.1581 µM): 0.276 | relative viability ([3]; first compound 0.5 µM): 0.229 | relative viability ([4]; first compound 0.005 µM): 0.49 | relative viability ([4]; first compound 0.01581 µM): 0.736 | relative viability ([4]; first compound 0.05 µM): 0.625 | relative viability ([4]; first compound 0.1581 µM): 0.468 | relative viability ([4]; first compound 0.5 µM): 0.432 | relative viability ([5]; first compound 0.005 µM): 0.297 | relative viability ([5]; first compound 0.01581 µM): 0.265 | relative viability ([5]; first compound 0.05 µM): 0.253 | relative viability ([5]; first compound 0.1581 µM): 0.246 | relative viability ([5]; first compound 0.5 µM): 0.223 | relative viability ([6]; first compound 0.005 µM): 0.334 | relative viability ([6]; first compound 0.01581 µM): 0.407 | relative viability ([6]; first compound 0.05 µM): 0.281 | relative viability ([6]; first compound 0.1581 µM): 0.147 | relative viability ([6]; first compound 0.5 µM): 0.117 | relative viability ([7]; first compound 0.005 µM): 0.29 | relative viability ([7]; first compound 0.01581 µM): 0.283 | relative viability ([7]; first compound 0.05 µM): 0.263 | relative viability ([7]; first compound 0.1581 µM): 0.308 | relative viability ([7]; first compound 0.5 µM): 0.273 | relative viability ([8]; first compound 0.005 µM): 0.508 | relative viability ([8]; first compound 0.01581 µM): 0.514 | relative viability ([8]; first compound 0.05 µM): 0.551 | relative viability ([8]; first compound 0.1581 µM): 0.374 | relative viability ([8]; first compound 0.5 µM): 0.277
